Experimental findings from ChEMBL document CHEMBL4613209, “Quinolone hybrids and their anti-cancer activities: An overview” (Eur J Med Chem, 2019) are described below.

≈ marks a conversion by molar mass, not a printed value.

One experiment deals with Lewis lung carcinoma cell line. In words: Anticancer activity against mouse LLC cells. It is filed as functional, cell-based.
One may read the IC50 as the concentration that gives 50% inhibition. In turn, `CC(C)(C)c1cccc(NC2CCN(C3C(F)=Cc4c5n(cc(C(=O)O)c4=O)-c4ccccc4OC53)C2)c1` (centres undefined) yielded an IC50 of 30 to 490 nM.
On the same count and under the same terms, the same measure for `Cc1ccccc1NC1CCN(C2C(F)=Cc3c4n(cc(C(=O)O)c3=O)-c3ccccc3OC42)C1` (centres undefined): 30 to 490 nM; for `Cc1cccc(C)c1NC1CCN(C2C(F)=Cc3c4n(cc(C(=O)O)c3=O)-c3ccccc3OC42)C1` (centres undefined): 30 to 490 nM.

In another experiment the test system is MCF7. In words: Anticancer activity against human MCF7 cells. In kind it is functional, cell-based.
On to `CC(C)(C)c1cccc(NC2CCN(C3C(F)=Cc4c5n(cc(C(=O)O)c4=O)-c4ccccc4OC53)C2)c1` (centres undefined), for which the IC50 was 30 to 490 nM.
In turn, `Cc1ccccc1NC1CCN(C2C(F)=Cc3c4n(cc(C(=O)O)c3=O)-c3ccccc3OC42)C1` (centres undefined) returned an IC50 of 30 to 490 nM.
On the same count and under the same terms, in the case of `Cc1cccc(C)c1NC1CCN(C2C(F)=Cc3c4n(cc(C(=O)O)c3=O)-c3ccccc3OC42)C1` (centres undefined) it was 30 to 490 nM.

The next experiment has as its system HCT-8. The experiment can be described thus: Anticancer activity against human HCT8 cells. It is filed as functional, cell-based.
`CC(C)(C)c1cccc(NC2CCN(C3C(F)=Cc4c5n(cc(C(=O)O)c4=O)-c4ccccc4OC53)C2)c1` (centres undefined) displayed a half-inhibitory concentration (IC50) of 30 to 490 nM.
The molecule `Cc1ccccc1NC1CCN(C2C(F)=Cc3c4n(cc(C(=O)O)c3=O)-c3ccccc3OC42)C1` (centres undefined) displayed an IC50 of 30 to 490 nM.
`Cc1cccc(C)c1NC1CCN(C2C(F)=Cc3c4n(cc(C(=O)O)c3=O)-c3ccccc3OC42)C1` (centres undefined) displayed an IC50 of 30 to 490 nM.

Another experiment deals with B16-F10. The experiment can be described thus: Cytotoxicity against mouse B16F10 cells assessed as reduction in cell viability. It is filed as functional, cell-based.
`CC(C)(C)c1cccc(NC2CCN(C3C(F)=Cc4c5n(cc(C(=O)O)c4=O)-c4ccccc4OC53)C2)c1` (centres undefined): the IC50 is 0.011 to 0.59 µg/mL (≈ 0.0213 to 1.14 µM).
Still for that read-out and setting: the same measure for `Cc1ccccc1NC1CCN(C2C(F)=Cc3c4n(cc(C(=O)O)c3=O)-c3ccccc3OC42)C1` (centres undefined): 0.011 to 0.59 µg/mL (≈ 0.0232 to 1.25 µM).
With `Cc1cccc(C)c1NC1CCN(C2C(F)=Cc3c4n(cc(C(=O)O)c3=O)-c3ccccc3OC42)C1` (centres undefined), the IC50 was in the range of 0.011 to 0.59 µg/mL (≈ 0.0226 to 1.21 µM).

The test system of another experiment is HT-29. In words: Anticancer activity against human HT-29 cells. In kind it is functional, cell-based.
`CC(C)(C)c1cccc(NC2CCN(C3C(F)=Cc4c5n(cc(C(=O)O)c4=O)-c4ccccc4OC53)C2)c1` (centres undefined) gave an IC50 of 30 to 490 nM.
Still for that read-out and setting: in the case of `Cc1ccccc1NC1CCN(C2C(F)=Cc3c4n(cc(C(=O)O)c3=O)-c3ccccc3OC42)C1` (centres undefined) it was 30 to 490 nM; in that of `Cc1cccc(C)c1NC1CCN(C2C(F)=Cc3c4n(cc(C(=O)O)c3=O)-c3ccccc3OC42)C1` (centres undefined), 30 to 490 nM.

For another experiment, the system named is A549. In words: Anticancer activity against human A549 cells. In kind it is functional, cell-based.
`CC(C)(C)c1cccc(NC2CCN(C3C(F)=Cc4c5n(cc(C(=O)O)c4=O)-c4ccccc4OC53)C2)c1` (centres undefined) had a half-maximal inhibitory concentration (IC50) of 30 to 490 nM.
`Cc1ccccc1NC1CCN(C2C(F)=Cc3c4n(cc(C(=O)O)c3=O)-c3ccccc3OC42)C1` (centres undefined) showed an IC50 of 30 to 490 nM.
Take `Cc1cccc(C)c1NC1CCN(C2C(F)=Cc3c4n(cc(C(=O)O)c3=O)-c3ccccc3OC42)C1` (centres undefined): the IC50 was 30 to 490 nM.

The test system of the next experiment is B16-F10. The experiment can be described thus: Anticancer activity against mouse B16F10 cells. It is filed as functional, cell-based.
Molecule `CC(C)(C)c1cccc(NC2CCN(C3C(F)=Cc4c5n(cc(C(=O)O)c4=O)-c4ccccc4OC53)C2)c1` (centres undefined) came in with an IC50 of 30 to 490 nM.
`Cc1ccccc1NC1CCN(C2C(F)=Cc3c4n(cc(C(=O)O)c3=O)-c3ccccc3OC42)C1` (centres undefined): the IC50 was in the range of 30 to 490 nM.
On to `Cc1cccc(C)c1NC1CCN(C2C(F)=Cc3c4n(cc(C(=O)O)c3=O)-c3ccccc3OC42)C1` (centres undefined), for which the IC50 was 30 to 490 nM.

The test system of another experiment is P388. The experiment can be described thus: Anticancer activity against mouse P388 cells. It is filed as functional, cell-based.
`CC(C)(C)c1cccc(NC2CCN(C3C(F)=Cc4c5n(cc(C(=O)O)c4=O)-c4ccccc4OC53)C2)c1` (centres undefined) gave an IC50 of 30 to 490 nM.
For `Cc1ccccc1NC1CCN(C2C(F)=Cc3c4n(cc(C(=O)O)c3=O)-c3ccccc3OC42)C1` (centres undefined), the IC50 was 30 to 490 nM.
In turn, `Cc1cccc(C)c1NC1CCN(C2C(F)=Cc3c4n(cc(C(=O)O)c3=O)-c3ccccc3OC42)C1` (centres undefined) registered an IC50 of 30 to 490 nM.

For another experiment, the system named is P388. The experiment can be described thus: Cytotoxicity against mouse P388 cells assessed as reduction in cell viability. In kind it is functional, cell-based.
`CC(C)(C)c1cccc(NC2CCN(C3C(F)=Cc4c5n(cc(C(=O)O)c4=O)-c4ccccc4OC53)C2)c1` (centres undefined): the IC50 lay within 0.011 to 0.59 µg/mL (≈ 0.0213 to 1.14 µM).
As for `Cc1ccccc1NC1CCN(C2C(F)=Cc3c4n(cc(C(=O)O)c3=O)-c3ccccc3OC42)C1` (centres undefined), the IC50 lay within 0.011 to 0.59 µg/mL (≈ 0.0232 to 1.25 µM).
As to `Cc1cccc(C)c1NC1CCN(C2C(F)=Cc3c4n(cc(C(=O)O)c3=O)-c3ccccc3OC42)C1` (centres undefined), the IC50 lay within 0.011 to 0.59 µg/mL (≈ 0.0226 to 1.21 µM).

The subject of a further experiment is P388. In words: Cytotoxicity against doxorubicin resistant mouse P388 cells assessed as reduction in cell viability. It is filed as functional, cell-based.
Take `CC(C)(C)c1cccc(NC2CCN(C3C(F)=Cc4c5n(cc(C(=O)O)c4=O)-c4ccccc4OC53)C2)c1` (centres undefined): the IC50 fell in the range of 0.011 to 0.59 µg/mL (≈ 0.0213 to 1.14 µM).
On the same count and under the same terms, the same measure for `Cc1ccccc1NC1CCN(C2C(F)=Cc3c4n(cc(C(=O)O)c3=O)-c3ccccc3OC42)C1` (centres undefined): 0.011 to 0.59 µg/mL (≈ 0.0232 to 1.25 µM); for `Cc1cccc(C)c1NC1CCN(C2C(F)=Cc3c4n(cc(C(=O)O)c3=O)-c3ccccc3OC42)C1` (centres undefined): 0.011 to 0.59 µg/mL (≈ 0.0226 to 1.21 µM).

The subject of the next experiment is HT-29. In words: Cytotoxicity against human HT-29 cells assessed as reduction in cell viability. In kind it is functional, cell-based.
With `CC(C)(C)c1cccc(NC2CCN(C3C(F)=Cc4c5n(cc(C(=O)O)c4=O)-c4ccccc4OC53)C2)c1` (centres undefined), the IC50 was 0.011 to 0.59 µg/mL (≈ 0.0213 to 1.14 µM).
For `Cc1ccccc1NC1CCN(C2C(F)=Cc3c4n(cc(C(=O)O)c3=O)-c3ccccc3OC42)C1` (centres undefined), the IC50 was in the range of 0.011 to 0.59 µg/mL (≈ 0.0232 to 1.25 µM).
For `Cc1cccc(C)c1NC1CCN(C2C(F)=Cc3c4n(cc(C(=O)O)c3=O)-c3ccccc3OC42)C1` (centres undefined), the IC50 fell in the range of 0.011 to 0.59 µg/mL (≈ 0.0226 to 1.21 µM).

The next experiment has as its system P388. The experiment can be described thus: Anticancer activity against doxorubicin resistant mouse P388 cells. It is filed as functional, cell-based.
On to `CC(C)(C)c1cccc(NC2CCN(C3C(F)=Cc4c5n(cc(C(=O)O)c4=O)-c4ccccc4OC53)C2)c1` (centres undefined), for which the IC50 fell in the range of 30 to 490 nM.
Consider `Cc1ccccc1NC1CCN(C2C(F)=Cc3c4n(cc(C(=O)O)c3=O)-c3ccccc3OC42)C1` (centres undefined), for which the IC50 is 30 to 490 nM.
`Cc1cccc(C)c1NC1CCN(C2C(F)=Cc3c4n(cc(C(=O)O)c3=O)-c3ccccc3OC42)C1` (centres undefined) came in with an IC50 of 30 to 490 nM.

The subject of another experiment is A549. The experiment can be described thus: Cytotoxicity against human A549 cells assessed as reduction in cell viability. It is filed as functional, cell-based.
Regarding `CC(C)(C)c1cccc(NC2CCN(C3C(F)=Cc4c5n(cc(C(=O)O)c4=O)-c4ccccc4OC53)C2)c1` (centres undefined), the IC50 was in the range of 0.011 to 0.59 µg/mL (≈ 0.0213 to 1.14 µM).
For the molecule `Cc1ccccc1NC1CCN(C2C(F)=Cc3c4n(cc(C(=O)O)c3=O)-c3ccccc3OC42)C1` (centres undefined), the IC50 is 0.011 to 0.59 µg/mL (≈ 0.0232 to 1.25 µM).
Turning to `Cc1cccc(C)c1NC1CCN(C2C(F)=Cc3c4n(cc(C(=O)O)c3=O)-c3ccccc3OC42)C1` (centres undefined), the IC50 lay in the range of 0.011 to 0.59 µg/mL (≈ 0.0226 to 1.21 µM).
